Values of other authors in patent US20230111756A1, “STABLE FORMULATIONS OF PLANTS EXTRACTS AND METHODS OF MAKING THE SAME” (Nulixir Inc., priority 2021, published 2023).

conditions: reference solvents n-octanol and water; categorization at pH=7 unless stated otherwise

Row | Compound | log P
1 | bacopaside B | ~2.8
2 | COc1cc(/C=C/c2ccccc2)oc(=O)c1 [5,6-dehydrokawain] | ~2.9
3 | COc1cc2c(c(OC)c1OC)-c1c(cc(OC)c(OC)c1OC)C[C@H](C)[C@H](C)C2 [(−)-schisandrin A] | ~3.6
4 | schisandroside C | ~1.6
5 | COc1cc(/C=C\c2ccc(OC)c(O)c2)oc(=O)c1 [11-hydroxyyangonin] | ~2.2
6 | herinacine A | ~2.5
7 | COc1ccc(CCc2cc(OC)cc(=O)o2)cc1 [7,8-dihydroyangonin] | ~2.9
8 | N#C[C@@]1(O[C@@H]2O[C@H](CO)[C@@H](O)[C@H](O)[C@H]2O)C=C[C@@H](O)C1 [tetraphyllin B] | ~−2.5
9 | (R)-kawain | ~2.7
10 | COc1nc2c(c(=O)n1C)n(C)c(=O)n2C [methylliberine] | ~−0.083
11 | COc1cc([C@H]2Oc3cc(O)c4c(=O)c(O)c(-c5ccc(O)cc5)oc4c3O[C@@H]2CO)ccc1O [rhodiolin] | ~2
12 | tortuosomine | 3
13 | COC1=CC(=O)O[C@@H](CCc2ccc3c(c2)OCO3)C1 [7,8-dihydromethysticin] | ~2.2
14 | CC1=C(CO)C(=O)O[C@@H]([C@@H](C)[C@H]2CC[C@H]3[C@@H]4C[C@H](Cl)[C@]5(O)[C@@H](O)C=CC(=O)[C@]5(C)[C@H]4CC[C@]23C)C1 [6a-chloro-5b-hydroxywithaferin A] | ~3.2
15 | COc1cc2c(c(OC)c1OC)-c1c(cc3c(c1OC)OCO3)CC(C)C(C)C2 (single isomer, unassigned; (-)) [(−)-schisandrin B] | ~4
16 | COc1cc2c(c(OC)c1OC)-c1c(cc(OC)c(OC)c1OC)C[C@](C)(O)[C@@H](C)C2 [schisandrol A] | ~3.4
17 | COc1cc2c(c(OC)c1OC)-c1c(cc(OC)c(OC)c1OC)C[C@](C)(O)[C@@H](C)C2 [(+)-schisandrin] | ~5
18 | COc1c2c(cc3c1-c1c(cc4c(c1OC)OCO4)C[C@H](C)[C@H](C)C3)OCO2 [(−)-schisandrin C] | ~3.5
19 | COc1ccc([C@@]23CCC(=O)C[C@@H]2N(C)CC3)cc1OC [mesembrine] | 1.5
20 | COC1=CC(=O)OC(/C=C/c2ccc(OC)cc2)C1 (stereo not shown) [5,6-dihydroyangonin] | ~2.5
21 | hericerin | ~6.4
22 | CC(=O)OC1C=CC(=O)N(C(=O)CCc2ccccc2)C1 (stereo not shown) [pipermethystine] | ~1.8
